Patent US12150955B2, “Iodine compositions” (DERMALIQ THERAPEUTICS, INC., priority 2017, dated 2024)

Columns and labels:
Rabbit corneas = assay: Ex Vivo Eye Irritation Test (EVEIT), corneal healing
Procedure: A comparison in respect of corneal healing process was conducted for a composition comprising molecular iodine (0.25 mg/ml; 250 ppm) in 1-perfluorohexyl-octane (Composition B) with vehicle 1-perfluorohexyl-octane (Composition A) and hyaluronic acid (HYLO-COMOD®) as a reference and 0.01% BAC (benzalkonium chloride) as a control using an Ex Vivo Eye Irritation Test (EVEIT), similar to as described in M. Frentz et al, Altern. to Lab. Anim., 2008 (36) p 25-32; and N. Schrage et al, Graefes Arch Clin Exp Ophthalmol 2012 (250), 1330-1340).
Method. […]
After 12 h of stabilization in the culture chamber, the corneas were evaluated by microscopy and corneas with intact epithelium and without opacities were selected. […] All defects were monitored by fluorescein sodium staining (0.17% aq. solution) and microscopy.
The test substances were administered one hour after induction of the corneal erosion and were applied six times daily onto the apex of the corneas (30-50 μL every four hours). […] All defects were monitored by fluorescein sodium stains (0.17% aq. solution) with yellow green fluorescence indicating the areas of epithelial defects. Erosion sizes were determined using a software tool of the microscope (DISKUS). […] To monitor the metabolic activity of the cornea, glucose and lactate concentrations were photometrically quantified in the outflow medium from the artificial anterior chambers.

[1] = Concentration of molecular iodine dissolved in the vehicle (saturated solutions); assay type: physicochemical
Procedure: Molecular iodine (I2) solutions in the semifluorinated alkane F4H5 at target concentrations of 0.01 mg/ml, 0.05 mg/ml, 0.1 mg/mL, 0.5 mg/mL, 0.55 mg/ml and 0.94 mg/mL were prepared. Molecular iodine was weighed into clear glass vials, followed by addition of the calculated volume of semifluorinated alkane F4H5. The compositions were stirred for 2 hours at room temperatures. The compositions provided clear pink solutions, ranging from strong pink/violet color at high concentrations (0.55 mg/ml) to very dilute pinkish colour at lower concentrations (0.01 mg/ml).
The 0.94 mg/ml solution was prepared by adding additional F4H5 to a composition comprising 1.0 mg/mL molecular iodine until all remaining molecular iodine particles were dissolved, providing a clear solution of deep pink/violet colour.
Molecular iodine (I2) solutions in the semifluorinated alkane F6H8 at target concentrations of 0.1 mg/mL, 0.5 mg/mL and 1.0 mg/mL were prepared. Molecular iodine was weighed into clear glass vials, followed by addition of the calculated volume of semifluorinated alkane F6H8. The compositions were stirred for 2 hours at room temperature
Additional F6H8 was added to the target 1.0 mg/mL composition until all remaining molecular iodine particles were dissolved, providing a clear solution, with a concentration of about 0.88 mg/mL. The solution is a deep pink/violet in colour.
Solutions with higher I2 concentrations may be prepared with the addition of ethanol (non-absolute or alternatively absolute). F4H5/EtOH-Concentrations of about 20 mg/mL of I2 in F4H5 are achieved when ethanol is added to an amount of 38% (w/w), relative to the weight of the vehicle The resulting composition is a red-brown coloured solution.
F6H8/EtOH-Solutions with higher I2 concentrations may be prepared with the addition of ethanol (non-absolute or alternatively absolute). Concentrations of about 20 mg/mL of I2 in F6H8 are achieved when ethanol is added to an amount of 38% (w/w), relative to the weight of the vehicle.
Saturated iodine solutions as prepared in Example 1 above of I2 in F4H5 (0.94 mg/mL) and F6H8 (0.88 mg/mL) were stored standing under ambient atmosphere and temperature conditions under a capped clear glass vial for 52 weeks without protection from light.

Compound | corneal healing process after induction of corneal erosion (in words) (Rabbit corneas) | concentration at which all molecular iodine particles were dissolved (saturated solution) ([1]; in F4H5, room temperature) | I2 concentration achieved ([1]; in F4H5 with ethanol 38% (w/w) of the vehicle) | concentration at which all molecular iodine particles were dissolved (saturated solution) ([1]; in F6H8, room temperature) | I2 concentration achieved ([1]; in F6H8 with ethanol 38% (w/w) of the vehicle)
benzalkonium chloride [0.01% BAC] | progressive increase of the induced epithelial lesions | – | – | – | –
II [molecular iodine, Molecular iodine] | – | 940 µg/mL | about 20 mg/mL | about 0.88 mg/mL | about 20 mg/mL
